Experimental data published in patent US8828994B2, “Di- and tri-substituted oxathiazine derivatives, method for the production thereof, use thereof as medicine and drug containing said derivatives and use thereof” (SANOFI, priority 2011, dated 2014).

The molecules below were run against human 11β-HSD1 microsome fraction (Homo sapiens, UniProt P28845) (assay: Enzymatic 11beta-HSD1 test (SPA-based detection)). Conditions: [1,2-3H]-cortisone, NADPH, 37° C., 1 hour, read-out: IC50 (nM), biological activity.
Type: biochemical
Procedure: First of all, 20 μl of the human 11β-HSD1 microsome fraction (0.2 μg of protein), prepared in 50 mM HEPES, 0.1% BSA (w/v), were applied to a plate with 384 wells. The test compounds (0.09 μl) were applied to the assay plate in 100% DMSO. The reaction was started by addition of 20 μl of [1,2-^3H]-cortisone (0.1 μCi/[…]) in assay buffer comprising 25 mM HEPES, 100 mM KCl, 5 mM NaCl, 2 mM MgCl2 and 0.25 mM NADPH. The plate was agitated at 37° C. for 1 hour. At the same time, a stop solution comprising 20 mg/ml SPA-PVT beads, 1.6 mg/ml monoclonal cortisol antibody and 0.01 mM SSR110887 (inhibitor from the Biovitrium patent) in 50 mM HEPES, 1 M NaCl and 1 M KCl was stirred at room temperature. To stop the reaction, 25 μl of the stop solution were added to each well. The plate was agitated gently at room temperature for 1 further hour and then centrifuged at 500 gav for 1 min, in order that the SPA beads could settle out. […] The comparative compound was glycyrrhetinic acid.
Protein and radioactive substrate were dispensed with a Biomek FX unit (Beckman Coulter) for handling liquids. The test compounds were added with a Cybi-Well equipped with a 90 n1 pin tool (CyBio).
Lit.: Solly S, Mundt S S, Zokian H J, Juy-Fang Ding G, Hermanowski-Vosatka A, Strulovici B and Zheng W. High-throughput screening of 11β-Hydroxysteroid dehydrogenase type 1 in scintillation proximity format.

Sequence of human 11β-HSD1 microsome fraction (P28845 whole entry): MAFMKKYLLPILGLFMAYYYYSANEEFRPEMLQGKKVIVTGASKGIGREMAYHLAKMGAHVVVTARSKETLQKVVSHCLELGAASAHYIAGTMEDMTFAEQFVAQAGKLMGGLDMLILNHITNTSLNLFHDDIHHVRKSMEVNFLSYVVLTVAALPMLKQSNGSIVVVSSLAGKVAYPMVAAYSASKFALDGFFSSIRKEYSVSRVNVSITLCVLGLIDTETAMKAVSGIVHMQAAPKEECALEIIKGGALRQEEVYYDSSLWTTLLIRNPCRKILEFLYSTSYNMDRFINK

Row | IC50 [nM] | SMILES
1 | 355 | O=S1(=O)N=C(NC2CCCCC2)OC(c2ccccc2)C12CC2 (centres unmarked) [Example 1, Cyclohexyl-(4,4-dioxo-8-phenyl-7-oxa-4lambda6-thia-5-aza-spiro[2.5]oct-5-en-6-yl)-amine]
2 | 629 | CC(C)C1OC(NC2CCCCC2)=NS(=O)(=O)C12CC2 (centres unmarked) [Example 3, Cyclohexyl-(8-isopropyl-4,4-dioxo-7-oxa-4lambda6-thia-5-aza-spiro[2.5]oct-5-en-6-yl)-amine]
3 | 518 | CCCC1OC(NC2CCCCC2)=NS(=O)(=O)C12CC2 (centres unmarked) [Example 4, Cyclohexyl-(4,4-dioxo-8-propyl-7-oxa-4lambda6-thia-5-aza-spiro[2.5]oct-5-en-6-yl)-amine]
4 | 438 | CC(C)(C)C1OC(NC2CCCCC2)=NS(=O)(=O)C12CC2 (centres unmarked) [Example 5, (8-tert-Butyl-4,4-dioxo-7-oxa-4lambda6-thia-5-aza-spiro[2.5]oct-5-en-6-yl)-cyclohexyl-amine]
5 | 598 | CC1OC(NC2CCCCC2)=NS(=O)(=O)C12CC2 (centres unmarked) [Example 6, Cyclohexyl-(8-methyl-4,4-dioxo-7-oxa-4lambda6-thia-5-aza-spiro[2.5]oct-5-en-6-yl)-amine]
